Results published in PubChem BioAssay AID256 (DTP/NCI, 2004).
Toxic doses and inconclusive results are not listed. The calls were made as follows: active = survival T/C of 150% or more; inactive = T/C below 125% in these data.

System: CD2F1 mice, L1210 leukemia ip, survival T/C
Assay: NCI In Vivo Anticancer Drug Screen. Data for tumor model L1210 Leukemia (intraperitoneal) in CD2F1 (CDF1) mice
Settings: higher = longer survival
Procedure, shortened: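 Tumor-bearing mice (transplanted tumor) were split into treated and vehicle control groups, and the measured endpoint of each treated group was divided by that of its vehicle controls.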

[1] = endpoint: mean survival time, dose: 100.0 mg/kg/injection, schedule: Q04DX003 (ip), vehicle: saline with Tween-80
[2] = endpoint: mean survival time, dose: 200.0 mg/kg/injection, schedule: Q04DX003 (ip), vehicle: saline with Tween-80
[3] = endpoint: mean survival time, dose: 400.0 mg/kg/injection, schedule: Q04DX003 (ip), vehicle: saline with Tween-80
[4] = endpoint: mean survival time, dose: 100.0 mg/kg/injection, schedule: Q01DX009 (ip), vehicle: saline with Tween-80
[5] = endpoint: mean survival time, dose: 200.0 mg/kg/injection, schedule: Q01DX009 (ip), vehicle: saline with Tween-80
[6] = endpoint: mean survival time, dose: 400.0 mg/kg/injection, schedule: Q01DX009 (ip), vehicle: saline with Tween-80
[7] = endpoint: mean survival time, dose: 50.0 mg/kg/injection, schedule: Q01DX009 (ip), vehicle: saline with Tween-80
[8] = endpoint: mean survival time, dose: 50.0 mg/kg/injection, schedule: Q01DX009 (ip), vehicle: saline
[9] = endpoint: mean survival time, dose: 100.0 mg/kg/injection, schedule: Q01DX009 (ip), vehicle: saline
[10] = endpoint: mean survival time, dose: 100.0 mg/kg/injection, schedule: Q04DX002 (ip), vehicle: saline with Tween-80
[11] = endpoint: mean survival time, dose: 200.0 mg/kg/injection, schedule: Q04DX002 (ip), vehicle: saline with Tween-80

Measured: T/C

CCCCOB(OCCCC)OCCCC
inactive: [1] 98 % of control | [2] 93 % of control | [3] 103 % of control

CCCCNC(=O)CCC(=O)O
inactive: [4] 109 % of control | [1] 99 % of control | [5] 94 % of control | [2] 99 % of control | [6] 96 % of control | [3] 95 % of control

CCSC1CCS(=O)(=O)C1 (stereo not given)
inactive: [7] 93 % of control | [4] 93 % of control | [5] 97 % of control

COC(=O)/C(C#N)=C\c1ccccc1
inactive: [7] 95 % of control | [4] 95 % of control | [5] 92 % of control

CCCCCCC(O)CCCCCCCCCCC(=O)O (stereo not given)
inactive: [1] 98 % of control | [2] 92 % of control | [3] 90 % of control

CCSCCCC(=O)O
inactive: endpoint: mean survival time, dose: 25.0 mg/kg/injection, schedule: Q01DX009 (ip), vehicle: saline 97 % of control | [8] 93 % of control | [9] 101 % of control | endpoint: mean survival time, dose: 100.0 mg/kg/injection, schedule: Q04DX003 (ip), vehicle: saline sonified 101 % of control

CCCCCC(O)C(O)CC(O)C(O)CCCCCCCC(=O)O (stereo not given)
inactive: endpoint: mean survival time, dose: 100.0 mg/kg/injection, schedule: Q04DX003 (ip), vehicle: saline 94 % of control | endpoint: mean survival time, dose: 200.0 mg/kg/injection, schedule: Q04DX003 (ip), vehicle: saline 91 % of control | endpoint: mean survival time, dose: 400.0 mg/kg/injection, schedule: Q04DX003 (ip), vehicle: saline 100 % of control

CC(C)(C)/C=C\C=C\C(C)(C)C
inactive: [7] 100 % of control | [4] 103 % of control | [5] 92 % of control

CCOC(=O)c1cc(-c2ccccc2)nc2c(Cl)cc(Cl)cc12
inactive: endpoint: mean survival time, dose: 100.0 mg/kg/injection, schedule: Q01DX001 (ip), vehicle: saline 94 % of control | endpoint: mean survival time, dose: 200.0 mg/kg/injection, schedule: Q01DX001 (ip), vehicle: saline 90 % of control | endpoint: mean survival time, dose: 400.0 mg/kg/injection, schedule: Q01DX001 (ip), vehicle: saline 96 % of control

ClC(Cl)(Cl)C1OCCO1
inactive: [4] 95 % of control | [1] 97 % of control | [5] 104 % of control | [2] 102 % of control | [6] 91 % of control | [3] 97 % of control

O=Cc1ccccc1O.O=Cc1ccccc1O.O=Cc1ccccc1O.[La]
inactive: [1] 89 % of control | [2] 98 % of control

COC(=O)C(CSC(c1ccccc1)(c1ccccc1)c1ccccc1)NC(=O)CCNC(=O)OCc1ccccc1 (stereo not given)
inactive: endpoint: mean survival time, dose: 12.5 mg/kg/injection, schedule: Q01DX009 (ip), vehicle: water 93 % of control | endpoint: mean survival time, dose: 25.0 mg/kg/injection, schedule: Q01DX009 (ip), vehicle: water 91 % of control | endpoint: mean survival time, dose: 50.0 mg/kg/injection, schedule: Q01DX009 (ip), vehicle: water 90 % of control | endpoint: mean survival time, dose: 100.0 mg/kg/injection, schedule: Q01DX009 (ip), vehicle: water 90 % of control

OCC1OC(Oc2ccccc2)C(O)C1O (stereo not given)
inactive: endpoint: mean survival time, dose: 75.0 mg/kg/injection, schedule: Q01DX001 (ip), vehicle: saline 93 % of control | endpoint: mean survival time, dose: 150.0 mg/kg/injection, schedule: Q01DX001 (ip), vehicle: saline 98 % of control | endpoint: mean survival time, dose: 300.0 mg/kg/injection, schedule: Q01DX001 (ip), vehicle: saline 98 % of control

O=C(O)c1c(Sc2ccccc2)cccc1Sc1ccccc1
inactive: endpoint: mean survival time, dose: 25.0 mg/kg/injection, schedule: Q04DX002 (ip), vehicle: saline with Tween-80 93 % of control | endpoint: mean survival time, dose: 50.0 mg/kg/injection, schedule: Q04DX002 (ip), vehicle: saline with Tween-80 93 % of control | endpoint: mean survival time, dose: 100.0 mg/kg/injection, schedule: Q01DX001 (ip), vehicle: saline with Tween-80 89 % of control | [10] 93 % of control | endpoint: mean survival time, dose: 200.0 mg/kg/injection, schedule: Q01DX001 (ip), vehicle: saline with Tween-80 93 % of control | [11] 95 % of control | endpoint: mean survival time, dose: 400.0 mg/kg/injection, schedule: Q01DX001 (ip), vehicle: saline with Tween-80 90 % of control | endpoint: mean survival time, dose: 400.0 mg/kg/injection, schedule: Q04DX002 (ip), vehicle: saline with Tween-80 87 % of control

O=S1(=O)OCCC1=C(c1ccccc1)c1ccccc1
inactive: endpoint: mean survival time, dose: 75.0 mg/kg/injection, schedule: Q04DX003 (ip), vehicle: saline 95 % of control | endpoint: mean survival time, dose: 150.0 mg/kg/injection, schedule: Q04DX003 (ip), vehicle: saline 97 % of control | endpoint: mean survival time, dose: 300.0 mg/kg/injection, schedule: Q04DX003 (ip), vehicle: saline 91 % of control

CC(C)CC(NC(=O)C(CSC(c1ccccc1)(c1ccccc1)c1ccccc1)NC(c1ccccc1)(c1ccccc1)c1ccccc1)C(=O)O (stereo not given)
inactive: [8] 97 % of control | [9] 91 % of control | endpoint: mean survival time, dose: 200.0 mg/kg/injection, schedule: Q01DX009 (ip), vehicle: saline 92 % of control | endpoint: mean survival time, dose: 400.0 mg/kg/injection, schedule: Q01DX009 (ip), vehicle: saline 91 % of control

CN(C)P1(=S)NCC(C(C)(C)C)CO1 (stereo not given)
inactive: endpoint: mean survival time, dose: 15.63 mg/kg/injection, schedule: Q01DX001 (ip), vehicle: distilled water + Tween-80 103 % of control | endpoint: mean survival time, dose: 31.25 mg/kg/injection, schedule: Q01DX001 (ip), vehicle: distilled water + Tween-80 103 % of control | endpoint: mean survival time, dose: 62.5 mg/kg/injection, schedule: Q01DX001 (ip), vehicle: distilled water + Tween-80 103 % of control | endpoint: mean survival time, dose: 125.0 mg/kg/injection, schedule: Q01DX001 (ip), vehicle: distilled water + Tween-80 97 % of control | endpoint: mean survival time, dose: 250.0 mg/kg/injection, schedule: Q01DX001 (ip), vehicle: distilled water + Tween-80 92 % of control

CCc1ccc(OC2OC(CO)C(OC3OC(CO)C(O)C(O)C3O)C(O)C2O)cc1 (stereo not given)
inactive: endpoint: mean survival time, dose: 75.0 mg/kg/injection, schedule: Q01DX001 (ip), vehicle: steriod suspending solution 92 % of control | endpoint: mean survival time, dose: 150.0 mg/kg/injection, schedule: Q01DX001 (ip), vehicle: steriod suspending solution 92 % of control | endpoint: mean survival time, dose: 300.0 mg/kg/injection, schedule: Q01DX001 (ip), vehicle: steriod suspending solution 95 % of control

NC(=S)N/N=C1\CC2CC1C1C=CCC21 (stereo not given)
inactive: [10] 111 % of control | [11] 98 % of control

Oc1ccc(CCCl)cc1
inactive: [7] 91 % of control | [4] 102 % of control | [5] 102 % of control

O=[N+]([O-])c1ccc(O/N=C(\CN2CCOCC2)c2ccc(Cl)cc2)c([N+](=O)[O-])c1
inactive: [1] 94 % of control | [2] 86 % of control | [3] 90 % of control

CC/C(=C(/CC)c1ccc(OP(=O)(Cl)N(CCCl)CCCl)cc1)c1ccc(OP(=O)(Cl)N(CCCl)CCCl)cc1 (stereo not given)
inactive: endpoint: median survival time, dose: 31.25 mg/kg/injection, schedule: Q01DX001 (ip), vehicle: distilled water + Tween-80 108 % of control | endpoint: median survival time, dose: 62.5 mg/kg/injection, schedule: Q01DX001 (ip), vehicle: distilled water + Tween-80 101 % of control | endpoint: median survival time, dose: 125.0 mg/kg/injection, schedule: Q01DX001 (ip), vehicle: distilled water + Tween-80 97 % of control | endpoint: median survival time, dose: 250.0 mg/kg/injection, schedule: Q01DX001 (ip), vehicle: distilled water + Tween-80 100 % of control | endpoint: median survival time, dose: 500.0 mg/kg/injection, schedule: Q01DX001 (ip), vehicle: distilled water + Tween-80 100 % of control

Cc1ccc(S(=O)(=O)OCCCCOS(=O)(=O)c2ccc(C)cc2)cc1
inactive: endpoint: mean survival time, dose: 100.0 mg/kg/injection, schedule: Q04DX003 (ip), vehicle: other 105 % of control | endpoint: mean survival time, dose: 200.0 mg/kg/injection, schedule: Q04DX003 (ip), vehicle: other 94 % of control | endpoint: mean survival time, dose: 400.0 mg/kg/injection, schedule: Q04DX003 (ip), vehicle: other 96 % of control
